# Reference: patent US20230104936A1, “TRPML MODULATORS” (Casma Therapeutics, Inc., priority 2019, published 2023)
# Test system: TFEB
# Test: TFEB nuclear translocation assay, HeLa wt cells
# Assay type: cell-based
# Settings: 2 hrs compound treatment, Table 1 does not say HeLa wt or TRPML1 KO
# Procedure, shortened: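 TFEB translocation into the nucleus of HeLa wt cells is scored by high-content immunofluorescence after 2 hrs of compound treatment at 37° C, reported as AC50.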
SMILES,"AC50 (Homo sapiens, HeLa, 2 h) [µM]",AC50 [µM]
"COc1ccc(S(=O)(=O)Nc2cccnc2N2CCN(c3ncc(Cl)cc3F)CC2)cc1 [Compound A-110, N-{2-[4-(5-chloro-3-fluoropyridin-2-yl)piperazin-1-yl]pyridin-3-yl}-4-methoxybenzene-1-sulfonamide]",≥ 10,
"CN(C)S(=O)(=O)c1ccc(S(=O)(=O)Nc2ccccc2N2CCP(=O)(c3ccc(F)cc3)CC2)cc1 [Compound A-232, N4-{2-[4-(4-fluorophenyl)-4-oxo-1,4λ^5-azaphosphinan-1-yl]phenyl}-N1,N1-dimethylbenzene-1,4-disulfonamide]",≥ 10,
CN(C)S(=O)(=O)c1ccc(S(=O)(=O)Nc2ccccc2N2CCN(C(=O)N3CC4CC3C4)CC2)cc1 [Compound A-447],2.01 to 8,
"CC(c1cc(Cl)cnc1N1CCC(CN2CCC(F)(F)CC2)CC1)S(=O)(=O)c1ccc(S(=O)(=O)N(C)C)cc1 (stereo not drawn) [Compound A-958, 4-[1-(5-chloro-2-{4-[(4,4-difluoropiperidin-1-yl)methyl]piperidin-1-yl}pyridin-3-yl)ethanesulfonyl]-N,N-dimethylbenzene-1-sulfonamide]",≤ 2,
"CN(C)S(=O)(=O)c1ccc(S(=O)(=O)Nc2ccccc2N2CCN(C(=O)C3(CF)CCC3)CC2)cc1 [Compound A-430, N4-(2-{4-[1-(fluoromethyl)cyclobutanecarbonyl]piperazin-1-yl}phenyl)-N1,N1-dimethylbenzene-1,4-disulfonamide]",2.01 to 8,
"COCC1(C)CCN(c2c(NS(=O)(=O)c3ccc(S(=O)(=O)N(C)C)cc3)ccc3nccn23)CC1 [Compound A-813, N4-{5-[4-(methoxymethyl)-4-methylpiperidin-1-yl]imidazo[1,2-a]pyridin-6-yl}-N1,N1-dimethylbenzene-1,4-disulfonamide]",≥ 10,
"CC1COCC(C)N1CC1CCN(c2c(F)cccc2NS(=O)(=O)c2ccc(S(=O)(=O)C(F)F)cc2)CC1 (stereo not drawn) [Compound A-866, 4-difluoromethanesulfonyl-N-(2-{4-[(3,5-dimethylmorpholin-4-yl)methyl]piperidin-1-yl}-3-fluorophenyl)benzene-1-sulfonamide]",≤ 2,
"C[C@@H]1CN(CC2CCN(c3c(F)cccc3NS(=O)(=O)c3ccc(S(=N)(=O)N(C)C)cc3)CC2)C[C@H](C)O1 (single isomer, unassigned) [Compound A-811, Rel-N-(2-(4-((2,6-dimethylmorpholino)methyl)piperidin-1-yl)-3-fluorophenyl)-4-(N,N-dimethylsulfamidimidoyl)benzenesulfonamide]",,≤ 2
"CC(c1cccc(F)c1N1CCCCC1)S(=O)(=O)c1ccc(S2(=O)=NCCC2)cc1 (single isomer, unassigned) [Compound A-980, 1-(4-((1-(3-fluoro-2-(piperidin-1-yl)phenyl)ethyl)sulfonyl)phenyl)-4,5-dihydro-3H-isothiazole 1-oxide]",,≥ 10
"CN(C)S(=O)(=O)c1ccc(C(Nc2cccc(Cl)c2N2CCOCC2)C(F)(F)F)cc1 (stereo not drawn) [Compound A-342, 4-(1-{[3-chloro-2-(morpholin-4-yl)phenyl]amino}-2,2,2-trifluoroethyl)-N,N-dimethylbenzene-1-sulfonamide]",8.01 to 9.99,
"CN(C)S(=O)(=O)c1ccc(S(=O)(=O)Nc2ccccc2N2CCN(C(=O)C3CC34CC4)CC2)cc1 (stereo not drawn) [Compound A-462, N1,N1-dimethyl-N4-[2-(4-{spiro[2.2]pentane-1-carbonyl}piperazin-1-yl)phenyl]benzene-1,4-disulfonamide]",2.01 to 8,
"CN(C)S(=O)(=O)c1ccc(S(=O)(=O)Nc2ccccc2N2CCC(c3ccc(C(=O)O)cc3)CC2)cc1 [Compound A-267, 4-(1-{2-[4-(dimethylsulfamoyl)benzenesulfonamido]phenyl}piperidin-4-yl)benzoic acid]",≥ 10,
"COCC1(C)CCN(c2ccccc2NS(=O)(=O)C2=Cc3ccccc3OCC2)CC1 [Compound A-624, N-{2-[4-(methoxymethyl)-4-methylpiperidin-1-yl]phenyl}-2,3-dihydro-1-benzoxepine-4-sulfonamide]",2.01 to 8,
"CC1(C)CC2(CCN(c3ccccc3NS(=O)(=O)c3ccc4c(c3)COCC4)CC2)CO1 [Compound A-715, N-(2-{3,3-dimethyl-2-oxa-8-azaspiro[4.5]decan-8-yl}phenyl)-3,4-dihydro-1H-2-benzopyran-7-sulfonamide]",≤ 2,
"COCC1(C)CCN(c2ccccc2NS(=O)(=O)c2ccc3c(c2)CC(C)(C)C3=O)CC1 [Compound A-639, N-{2-[4-(methoxymethyl)-4-methylpiperidin-1-yl]phenyl}-2,2-dimethyl-1-oxo-2,3-dihydro-1H-indene-5-sulfonamide]",≥ 10,
"CN(C)S(=O)(=O)c1ccc(S(=O)(=O)Nc2ccccc2N2CCN(C(=O)[C@@H]3C[C@H]3C(C)(F)F)CC2)cc1 (racemic) [Compound A-463, rac-N4-(2-{4-[(1R,2R)-2-(1,1-difluoroethyl)cyclopropanecarbonyl]piperazin-1-yl}phenyl)-N1,N1-dimethylbenzene-1,4-disulfonamide]",2.01 to 8,
"CN(C)S(=O)(=O)c1ccc(S(=O)(=O)Nc2ccccc2N2CCC(C(=O)NC(C)(C)C)CC2)cc1 [Compound A-323, N-tert-butyl-1-{2-[4-(dimethylsulfamoyl)benzenesulfonamido]phenyl}piperidine-4-carboxamide]",2.01 to 8,

SMILES,"AC50 (Homo sapiens, HeLa, 2 h) [µM]",AC50 [µM]
"COCC1(C)CCN(c2ccccc2NS(=O)(=O)Cc2ccccc2F)CC1 [Compound A-579, 1-(2-fluorophenyl)-N-{2-[4-(methoxymethyl)-4-methylpiperidin-1-yl]phenyl}methanesulfonamide]",2.01 to 8,
"COCC1(C)CCN(c2ccccc2NS(=O)(=O)c2ccc3c(c2)OC2(CCC2)O3)CC1 [Compound A-685, N-{2-[4-(methoxymethyl)-4-methylpiperidin-1-yl]phenyl}spiro[1,3-benzodioxole-2,1′-cyclobutane]-6-sulfonamide]",≤ 2,
"Cn1cc(S(=O)(=O)Nc2ccccc2N2CCN(c3ccc(Cl)cc3F)CC2)cn1 [Compound A-6, N-{2-[4-(4-chloro-2-fluorophenyl)piperazin-1-yl]phenyl}-1-methyl-1H-pyrazole-4-sulfonamide]",≥ 10,
"CN(C)S(=O)(=O)c1ccc(S(=O)(=O)Nc2ccccc2N2CCC(C)(c3ccc(F)cc3Cl)CC2)cc1 [Compound A-205, N4-{2-[4-(2-chloro-4-fluorophenyl)-4-methylpiperidin-1-yl]phenyl}-N1,N1-dimethylbenzene-1,4-disulfonamide]",≤ 2,
"CN(C)S(=O)(=O)c1ccc(S(=O)(=O)Nc2ccccc2N2C3CC2CN(c2ccc(Cl)cc2F)C3)cc1 [Compound A-27, N4-{2-[3-(4-chloro-2-fluorophenyl)-3,6-diazabicyclo[3.1.1]heptan-6-yl]phenyl}-N1,N1-dimethylbenzene-1,4-disulfonamide]",2.01 to 8,
"C[C@H](c1cccc(F)c1N1CCCCC1)S(=O)(=O)c1ccc(S(=N)(=O)N(C)C)cc1 (single isomer, unassigned) [Compound A-895]",,≥ 10
"COCC1CCN(c2ccccc2NS(=O)(=O)c2ccc(S(=O)(=O)N(C)C)cc2)CC1 [Compound A-434, N4-{2-[4-(methoxymethyl)piperidin-1-yl]phenyl}-N1,N1-dimethylbenzene-1,4-disulfonamide]",≤ 2,
"COCC1(C)CCN(c2ccccc2NS(=O)(=O)c2ccc(C3CC3)s2)CC1 [Compound A-708, 5-cyclopropyl-N-{2-[4-(methoxymethyl)-4-methylpiperidin-1-yl]phenyl}thiophene-2-sulfonamide]",≤ 2,
"CN(C)S(=O)(=O)c1ccc(S(=O)(=O)Nc2ccccc2N2CCC(O)(c3ncccc3F)CC2)cc1 [Compound A-355, N4-{2-[4-(3-fluoropyridin-2-yl)-4-hydroxypiperidin-1-yl]phenyl}-N1,N1-dimethylbenzene-1,4-disulfonamide]",2.01 to 8,
"CC(C)S(=N)(=O)c1ccc(S(=O)(=O)[C@H](C)c2cccc(F)c2N2CCCCC2)cc1 (stereo partly drawn) [Compound A-922, (4-(((R)-1-(3-fluoro-2-(piperidin-1-yl)phenyl)ethyl)sulfonyl)phenyl)(imino)(isopropyl)-λ^6-sulfanone]",≥ 10,
"CC(c1cccc(F)c1N1CCC(CN2C[C@@H](C)O[C@@H](C)C2)CC1)S(=O)(=O)c1ccc(S(=O)(=O)C(F)F)cc1 (single isomer, unassigned) [Compound A-807, 4-((1-(2-(1-((4-((difluoromethyl)sulfonyl)phenyl)sulfonyl)ethyl)-6-fluorophenyl)piperidin-4-yl)methyl)-2,6-dimethylmorpholine]",≤ 2,
"CN(C)S(=O)(=O)c1ccc(S(=O)(=O)Nc2cccc(F)c2N2CCC3(CCC(=O)N3)CC2)cc1 [Compound A-796, N4-(3-fluoro-2-{2-oxo-1,8-diazaspiro[4.5]decan-8-yl}phenyl)-N1,N1-dimethylbenzene-1,4-disulfonamide]",≥ 10,
"C[C@@H]1COC[C@H](C)N1CC1CN(c2c(F)cccc2NS(=O)(=O)c2ccc(S(=O)(=O)N(C)C)cc2)C1 [Compound A-900, N4-[2-(3-{[(3R,5S)-3,5-dimethylmorpholin-4-yl]methyl}azetidin-1-yl)-3-fluorophenyl]-N1,N1-dimethylbenzene-1,4-disulfonamide]",≥ 10,
"CN(C)S(=O)(=O)c1ccc(S(=O)(=O)Nc2ccccc2N2CCN(CC3CCOCC3)CC2)cc1 [Compound A-510, N1,N1-dimethyl-N4-(2-{4-[(oxan-4-yl)methyl]piperazin-1-yl}phenyl)benzene-1,4-disulfonamide]",≤ 2,
"CN(C(=O)C1(C)CCN(c2ccccc2NS(=O)(=O)c2ccc(S(=O)(=O)N(C)C)cc2)CC1)C(C)(C)C [Compound A-360, N-tert-butyl-1-{2-[4-(dimethylsulfamoyl)benzenesulfonamido]phenyl}-N,4-dimethylpiperidine-4-carboxamide]",≤ 2,
"O=S(=O)(CC1CCC2(CCCC2)O1)Nc1cccc(Cl)c1N1CCOCC1 (stereo not drawn) [Compound A-393, N-[3-chloro-2-(morpholin-4-yl)phenyl]-1-{1-oxaspiro[4.4]nonan-2-yl}methanesulfonamide]",8.01 to 9.99,
